Reference: paper PMC11189555, “Aryl amino acetamides prevent Plasmodium falciparum ring development via targeting the lipid-transfer protein PfSTART1” (Nature Communications, 2024)
Values joined by “and” are separate entries in the source; they are usually repeats but may differ in a detail not shown here. Equal entries are not always repeated.

Tested on: 3D7 P. falciparum parasites
Experiment: Growth inhibition assay (72 h, LDH activity)
Assay type: cell-based, Plasmodium falciparum
Settings: for NORMALISED (growth inhibition, LDH absorbance vs DMSO and uRBC): 3D7, 0 mM GlcN; for NORMALISED (growth inhibition, LDH absorbance) / (av-uRBC) / (DMSO-uRBC) x100: 3D7
In short: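 Synchronised ring-stage P. falciparum (0.3-0.6% parasitemia, 2% haematocrit) grown 72 h in serial compound dilutions, sometimes with 0, 0.25 or 2.5 mM glucosamine. Growth read as LDH activity (Malstat/NBT, A650) after freeze-thaw, normalised to DMSO and uninfected RBC. EC50 by nonlinear regression.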

CC(C)(Nc1ccc(Cl)c(S(=O)(=O)N2CCOCC2)c1)C(=O)Nc1ccc(F)c(Cl)c1 [W-991]
NORMALISED (growth inhibition, LDH absorbance vs DMSO and uRBC) (W991 at 0.137174 nM): 9.0099 and 4.6722 | NORMALISED (growth inhibition, LDH absorbance vs DMSO and uRBC) (W991 at 0.411523 nM): 30.495 and 19.7030 | NORMALISED (growth inhibition, LDH absorbance vs DMSO and uRBC) (W991 at 1.23457 nM): 67.3267 and 60.8717 | NORMALISED (growth inhibition, LDH absorbance vs DMSO and uRBC) (W991 at 3.7037 nM): 88.9109 and 93.8187 | NORMALISED (growth inhibition, LDH absorbance vs DMSO and uRBC) (W991 at 11.1111 nM): 90.3465 and 96.7162 | NORMALISED (growth inhibition, LDH absorbance vs DMSO and uRBC) (W991 at 33.3333 nM): 89.8515 and 96.9697 | NORMALISED (growth inhibition, LDH absorbance vs DMSO and uRBC) (W991 at 100 nM): 92.3267 and 97.2232 | NORMALISED (growth inhibition, LDH absorbance) (0.25 mM GlcN, dilution point 1 of 10, starting concentration 100 nM): 97.1868 | NORMALISED (growth inhibition, LDH absorbance) (0.25 mM GlcN, dilution point 2 of 10 from starting concentration 100 nM): 96.6100 | NORMALISED (growth inhibition, LDH absorbance) (0.25 mM GlcN, dilution point 3 of 10 from starting concentration 100 nM): 96.4481 | NORMALISED (growth inhibition, LDH absorbance) (0.25 mM GlcN, dilution point 4 of 10 from starting concentration 100 nM): 92.3801 | NORMALISED (growth inhibition, LDH absorbance) (0.25 mM GlcN, dilution point 5 of 10 from starting concentration 100 nM): 74.4235 and 44.8087 | NORMALISED (growth inhibition, LDH absorbance) (2.5 mM GlcN, dilution point 1 of 10, starting concentration 100 nM): 96.9212 | NORMALISED (growth inhibition, LDH absorbance) (2.5 mM GlcN, dilution point 2 of 10 from starting concentration 100 nM): 96.2021 | NORMALISED (growth inhibition, LDH absorbance) (2.5 mM GlcN, dilution point 3 of 10 from starting concentration 100 nM): 95.7667 | NORMALISED (growth inhibition, LDH absorbance) (2.5 mM GlcN, dilution point 4 of 10 from starting concentration 100 nM): 92.5258 | NORMALISED (growth inhibition, LDH absorbance) (2.5 mM GlcN, dilution point 5 of 10 from starting concentration 100 nM): 58.1932 | NORMALISED (growth inhibition, LDH absorbance) (2.5 mM GlcN, dilution point 6 of 10 from starting concentration 100 nM): 27.2129 | NORMALISED (growth inhibition, LDH absorbance) (2.5 mM GlcN, dilution point 8 of 10 from starting concentration 100 nM): 5.32 and 8.1730 | (av-uRBC) / (DMSO-uRBC) x100 (conc. 0.0762079 nM, Biological replicate 1 (2021-10-25)): 91.3585 | (av-uRBC) / (DMSO-uRBC) x100 (conc. 0.0762079 nM, Biological replicate 2 (2021-11-03)): 90.9909 | (av-uRBC) / (DMSO-uRBC) x100 (conc. 0.0762079 nM, Biological replicate 3 (2021-11-11)): 91.0985 | (av-uRBC) / (DMSO-uRBC) x100 (conc. 0.228624 nM, Biological replicate 1 (2021-10-25)): 79.3619 | (av-uRBC) / (DMSO-uRBC) x100 (conc. 0.228624 nM, Biological replicate 2 (2021-11-03)): 81.2617 | (av-uRBC) / (DMSO-uRBC) x100 (conc. 0.228624 nM, Biological replicate 3 (2021-11-11)): 73.154 | (av-uRBC) / (DMSO-uRBC) x100 (conc. 0.685871 nM, Biological replicate 1 (2021-10-25)): 42.85 | (av-uRBC) / (DMSO-uRBC) x100 (conc. 0.685871 nM, Biological replicate 2 (2021-11-03)): 72.8867 | (av-uRBC) / (DMSO-uRBC) x100 (conc. 0.685871 nM, Biological replicate 3 (2021-11-11)): 42.2112 | (av-uRBC) / (DMSO-uRBC) x100 (conc. 2.05761 nM, Biological replicate 1 (2021-10-25)): 12.3757 | (av-uRBC) / (DMSO-uRBC) x100 (conc. 2.05761 nM, Biological replicate 2 (2021-11-03)): 18.386 | (av-uRBC) / (DMSO-uRBC) x100 (conc. 2.05761 nM, Biological replicate 3 (2021-11-11)): 9.397 | (av-uRBC) / (DMSO-uRBC) x100 (conc. 6.17284 nM, Biological replicate 1 (2021-10-25)): 9.357 | (av-uRBC) / (DMSO-uRBC) x100 (conc. 6.17284 nM, Biological replicate 2 (2021-11-03)): 11.686 | (av-uRBC) / (DMSO-uRBC) x100 (conc. 6.17284 nM, Biological replicate 3 (2021-11-11)): 6.494 | (av-uRBC) / (DMSO-uRBC) x100 (conc. 18.5185 nM, Biological replicate 1 (2021-10-25)): 9.8 | (av-uRBC) / (DMSO-uRBC) x100 (conc. 18.5185 nM, Biological replicate 2 (2021-11-03)): 10.8954 | (av-uRBC) / (DMSO-uRBC) x100 (conc. 18.5185 nM, Biological replicate 3 (2021-11-11)): 6.2108 | (av-uRBC) / (DMSO-uRBC) x100 (conc. 55.5556 nM, Biological replicate 1 (2021-10-25)): 9.035 | (av-uRBC) / (DMSO-uRBC) x100 (conc. 55.5556 nM, Biological replicate 2 (2021-11-03)): 11.005 | (av-uRBC) / (DMSO-uRBC) x100 (conc. 55.5556 nM, Biological replicate 3 (2021-11-11)): 5.108 | (av-uRBC) / (DMSO-uRBC) x100 (conc. 166.667 nM, Biological replicate 1 (2021-10-25)): 9.2782 | (av-uRBC) / (DMSO-uRBC) x100 (conc. 166.667 nM, Biological replicate 2 (2021-11-03)): 9.854 | (av-uRBC) / (DMSO-uRBC) x100 (conc. 166.667 nM, Biological replicate 3 (2021-11-11)): 4.764 | (av-uRBC) / (DMSO-uRBC) x100 (conc. 500 nM, Biological replicate 1 (2021-10-25)): 10.7733 | (av-uRBC) / (DMSO-uRBC) x100 (conc. 500 nM, Biological replicate 2 (2021-11-03)): 10.7389 | (av-uRBC) / (DMSO-uRBC) x100 (conc. 500 nM, Biological replicate 3 (2021-11-11)): 3.985 | improvement in parasite activity on replacing the aryl oxy of compound 3 with an amino group (EC50 based): 20 fold
